Data taken from PubChem BioAssay (NCI).
“And” between values parts separate entries of the source, which are not always exact repeats. Identical values can stand only once.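 Dose response: 5 concentrations. Exposure: 48 h. Format: 96-well plates. Endpoint: linear interpolation; highest concentration if not reached. GI50 = concentration required for 50% inhibition of growth. At the TGI there is no net growth.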

Columns and labels:
Test in all cases: NCI tumour cell line growth inhibition, 48 h
[1] = system: 786-0 renal
[2] = system: EKVX NSCLC
[3] = system: K-562 leukemia
[4] = system: M14 melanoma
[5] = system: OVCAR-8 ovarian
[6] = system: SK-OV-3 ovarian
[7] = system: SNB-19 CNS
[8] = system: MDA-MB-435
[9] = system: NCI/ADR-RES ovarian
[10] = system: BT-549 breast

Compound: CCOc1ccc(-c2oc(/C=N/NS(=O)(=O)c3ccc(C)cc3)c([N+](=O)[O-])c2-c2ccc(OCC)cc2)cc1
- TGI [1]: 29.7 µM
- TGI [2]: 80 µM
- TGI [3]: > 56.3 µM
- TGI [4]: 27.7 µM
- TGI [5]: 50 µM
- TGI [6]: 42.7 µM
- TGI [7]: 43.1 µM

Compound: C[N+](C)=c1nc(N2CCOCC2)ss1
- TGI [1]: > 100 µM
- TGI [2]: > 100 µM
- TGI [3]: > 100 µM
- TGI [4]: > 100 µM
- TGI [5]: > 100 µM
- TGI [6]: > 100 µM
- TGI [7]: > 100 µM

Compound: NC(=O)c1c[se]c(C2OC(COP(=O)(O)CP(=O)(O)OCC3OC(n4cnc5c(N)ncnc54)C(O)C3O)C(O)C2O)n1 (centres undefined)
- TGI [1]: > 100 µM
- TGI [2]: > 100 µM
- TGI [3]: > 100 µM
- TGI [4]: > 100 µM
- TGI [5]: > 100 µM
- TGI [6]: > 100 µM
- TGI [7]: > 100 µM

Compound: CCCCCCCCCC(=O)Oc1cccc2onc(C)c12
- TGI [1]: > 100 µM
- TGI [2]: > 100 µM
- TGI [3]: > 100 µM
- TGI [4]: > 100 µM
- TGI [5]: > 100 µM
- TGI [6]: > 100 µM
- TGI [7]: > 100 µM

Compound: COC(=O)C1(F)C(=O)NC(=O)NC1OC (centres undefined)
- TGI [1]: > 100 µM
- TGI [3]: > 100 µM
- TGI [5]: > 100 µM
- TGI [6]: > 100 µM
- TGI [7]: > 100 µM

Compound: CC1(C)OC(COCCOCCCCCO)C(COCCOCCCCCO)O1 (centres undefined)
- TGI [1]: > 100 µM
- TGI [2]: > 100 µM
- TGI [3]: > 100 µM
- TGI [4]: > 100 µM
- TGI [5]: > 100 µM
- TGI [6]: > 100 µM
- TGI [7]: > 100 µM

Compound: c1ccc(NC[Si]23OCCN(CCO2)CCO3)cc1
- TGI [1]: > 100 µM
- TGI [2]: > 100 µM
- TGI [3]: > 100 µM
- TGI [5]: > 100 µM
- TGI [6]: > 100 µM
- TGI [7]: > 100 µM

Compound: COc1cc(O)c(C(C)=O)c(O)c1
- TGI [1]: > 100 µM
- TGI [2]: > 100 µM
- TGI [3]: > 100 µM
- TGI [4]: > 100 µM
- TGI [8]: > 100 µM
- TGI [9]: > 100 µM
- TGI [5]: > 100 µM
- TGI [6]: > 100 µM

Compound: Cc1nnc(N=Nc2c(O)[nH]c3ccccc23)n1N
- TGI [1]: > 100 µM
- TGI [2]: > 100 µM
- TGI [3]: > 100 µM
- TGI [4]: > 100 µM
- TGI [5]: > 100 µM
- TGI [6]: > 100 µM
- TGI [7]: > 100 µM

Compound: O=[N+]([O-])C1C2C=CC(C2)[C@H]1c1ccc(Cl)cc1Cl (some centres undefined)
- TGI [1]: > 100 µM
- TGI [3]: > 100 µM
- TGI [5]: > 100 µM
- TGI [7]: > 100 µM

Compound: Cc1ccc(/C=C2\CNC/C(=C\c3ccc(C)cc3)C2=O)cc1
- TGI [1]: 2.79 µM and 3.89 µM
- TGI [10]: 4.28 µM
- GI50 [2]: 2.85 µM
- TGI [2]: 8.3 µM and 20.8 µM
- GI50 [3]: 1.14 µM
- TGI [3]: 2.68 µM
- TGI [4]: 11.2 µM
- TGI [8]: 19.9 µM
- GI50 [5]: 0.587 µM
- TGI [5]: 2.44 µM and 5.63 µM
- GI50 [6]: 3.81 µM
- TGI [6]: 6.9 µM and 22.1 µM
- GI50 [7]: 1.93 µM
- TGI [7]: 4.78 µM and 15 µM

Compound: CC1(C)CC(=O)c2c(oc3cc(O)c(O)cc23)C1
- TGI [1]: > 100 µM
- TGI [3]: > 100 µM
- TGI [4]: 53.9 µM
- TGI [5]: 55.6 µM
- TGI [6]: > 100 µM
- TGI [7]: > 100 µM

Compound: CC(c1ccccc1)N1CC(C)(c2ccccc2)N(O)C(c2ccccc2)C1C (centres undefined)
- TGI [1]: 30.2 µM
- TGI [2]: 62.1 µM
- TGI [3]: > 100 µM
- TGI [5]: > 100 µM
- TGI [6]: 87.8 µM
- TGI [7]: > 100 µM

Compound: O=C(Nc1ccc(Cl)cc1)Nc1ccccc1CNc1nc(Nc2ccc(OCCN3CCCC3)cc2)ncc1Cl
- GI50 [1]: 0.871 µM
- TGI [1]: 1.61 µM
- GI50 [10]: 5.87 µM
- TGI [10]: 12.6 µM
- GI50 [2]: 1.55 µM
- TGI [2]: 6.63 µM
- GI50 [3]: 1.16 µM
- TGI [3]: 2.82 µM
- GI50 [4]: 0.832 µM
- TGI [4]: 1.68 µM
- GI50 [8]: 0.935 µM
- TGI [8]: 1.93 µM
- GI50 [9]: 1.16 µM
- TGI [9]: 2.64 µM
- GI50 [5]: 1.25 µM
- TGI [5]: 3.31 µM
- GI50 [7]: 2.5 µM
- TGI [7]: 11.6 µM

Compound: Cc1ccccc1NC(=O)C(=O)CC(=O)c1ccc([N+](=O)[O-])cc1
- TGI [1]: > 100 µM
- TGI [2]: > 100 µM
- TGI [4]: > 100 µM
- TGI [5]: > 100 µM
- TGI [6]: > 100 µM
- TGI [7]: > 100 µM

Compound: C/C(=N\n1c(N)c(C#N)c(-c2ccc(Cl)cc2)c(C#N)c1=O)c1ccncc1
- GI50 [1]: 6.95 µM
- TGI [1]: 34 µM
- GI50 [2]: 6.13 µM
- TGI [2]: > 100 µM
- GI50 [3]: > 100 µM
- TGI [3]: > 100 µM
- GI50 [4]: > 100 µM
- TGI [4]: > 100 µM
- GI50 [9]: 5.28 µM
- TGI [9]: 31.3 µM
- GI50 [5]: 2.95 µM
- TGI [5]: 12.4 µM
- GI50 [6]: 10.1 µM
- TGI [6]: 64.6 µM
- GI50 [7]: 10.6 µM
- TGI [7]: > 100 µM

Compound: Cc1cc([N+](=O)[O-])c(S(=O)(=O)c2ccccc2)c([N+](=O)[O-])c1
- TGI [1]: 12.3 µM
- TGI [2]: > 72.5 µM
- TGI [3]: > 100 µM
- TGI [4]: 17.6 µM
- TGI [5]: > 62.5 µM
- TGI [6]: 74.7 µM
- TGI [7]: 32.9 µM

Compound: COc1ccc(-c2cc(/C=C/C(=O)c3cc(OC)c(OC)c(OC)c3)[nH]n2)cc1OC
- GI50 [1]: 1.5 µM
- TGI [1]: 2.9 µM
- GI50 [10]: 1.36 µM
- TGI [10]: 2.93 µM
- GI50 [3]: 0.731 µM
- TGI [3]: 9.71 µM
- GI50 [4]: 1.8 µM
- TGI [4]: 3.69 µM
- GI50 [8]: 1.78 µM
- TGI [8]: 4.05 µM
- GI50 [9]: 2.69 µM
- TGI [9]: 37 µM
- GI50 [5]: 2.56 µM
- TGI [5]: 11.7 µM
- GI50 [6]: 5.47 µM
- TGI [6]: 19 µM
- GI50 [7]: 1.8 µM
- TGI [7]: 5.32 µM

Compound: COc1ccc(-c2nc3c(c(=O)n2C(C)=O)C(c2ccc(Cl)cc2)c2sc4c(Cl)cccc4c2O3)cc1 (centres undefined)
- GI50 [1]: 0.43 µM
- TGI [1]: 1.63 µM
- GI50 [10]: 0.355 µM
- TGI [10]: 2.07 µM
- GI50 [2]: 0.71 µM
- TGI [2]: 4.74 µM
- GI50 [3]: 0.26 µM
- TGI [3]: 2.7 µM
- GI50 [4]: 0.239 µM
- TGI [4]: 0.973 µM
- GI50 [9]: 0.187 µM
- TGI [9]: 0.919 µM
- GI50 [5]: 0.5 µM
- TGI [5]: 2.37 µM
- GI50 [6]: 0.349 µM
- TGI [6]: 2.09 µM
- GI50 [7]: 0.413 µM
- TGI [7]: 2.01 µM

Compound: COc1ccc(CC2=NCCc3cc(OC)c(OC)cc32)cc1Br
- TGI [1]: > 100 µM
- TGI [2]: > 100 µM
- TGI [3]: 93.2 µM
- TGI [5]: > 100 µM
- TGI [6]: > 100 µM
- TGI [7]: > 100 µM

Compound: NC(=O)c1cc(I)ccc1NC(=O)COc1ccccc1
- GI50 [1]: 0.957 µM
- TGI [1]: 18.8 µM
- GI50 [10]: 0.644 µM
- TGI [10]: 31.5 µM
- GI50 [3]: 0.214 µM
- TGI [3]: 24.2 µM
- GI50 [4]: 0.403 µM
- TGI [4]: > 100 µM
- GI50 [8]: 0.107 µM
- TGI [8]: 0.359 µM
- GI50 [9]: 0.329 µM
- TGI [9]: 5.43 µM
- GI50 [5]: 0.876 µM
- TGI [5]: > 100 µM
- GI50 [6]: 3.21 µM
- TGI [6]: > 69.1 µM
- GI50 [7]: 0.699 µM
- TGI [7]: 44.1 µM

Compound: CCOC1=C2NC(Cc3ccc(F)cc3)=NC2C(=O)c2ccccc21 (centres undefined)
- TGI [1]: 47.8 µM
- TGI [2]: 85.7 µM
- TGI [3]: > 100 µM
- TGI [4]: 73.4 µM
- TGI [5]: 61.9 µM
- TGI [6]: > 100 µM
